{
  "source": "ChEMBL document CHEMBL1201862",
  "about": "“PubChem BioAssay data set” (2004)",
  "key": {"[1]": {"experiment": "inhibitors of intracellular T. cruzi replication, confirmation, NIH3T3 host cells, beta-gal luminescence (AID 2044);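 further: luminescent beta-galactosidase reporter signal from transgenic T. cruzi replicating inside host cells; inhibitors lower the luminescence signal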", "type": "functional, cell-based"}, "[2]": {"experiment": "microbe, parasite or virus in culture", "type": "functional", "settings": "Mycobacterium tuberculosis"}, "INS1": {"test_system": "INS1", "experiment": "beta cell apoptosis inhibitors, cytokine rescue, dose response, luminescence, retest (AID 449756);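 further: cell death triggered by IL-1 beta plus TNF-alpha plus IFN-gamma mixture; protective hits raise ATP signal compared with cytokine alone wells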", "type": "functional, cell-based", "settings": "Rattus norvegicus"}, "HEK293": {"test_system": "HEK293", "experiment": "inhibitors of LMP1-driven NF-kB reporter, dose response, cell-based, HEK293, luciferase, cherry-pick (AID 588343)", "type": "functional", "settings": "Homo sapiens"}, "[3]": {"experiment": "cytotoxicity toward NIH3T3 fibroblasts, dose response, counter-screen, cell-based, ATP luminescence, mouse fibroblasts (AID 2010);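 further: cells exposed to compound for about 90 hours before reading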", "type": "functional"}, "[4]": {"target": "Latent membrane protein 1 (Human herpesvirus 4 (strain B95-8), UniProt P03230)", "sequence (P03230 whole entry)": "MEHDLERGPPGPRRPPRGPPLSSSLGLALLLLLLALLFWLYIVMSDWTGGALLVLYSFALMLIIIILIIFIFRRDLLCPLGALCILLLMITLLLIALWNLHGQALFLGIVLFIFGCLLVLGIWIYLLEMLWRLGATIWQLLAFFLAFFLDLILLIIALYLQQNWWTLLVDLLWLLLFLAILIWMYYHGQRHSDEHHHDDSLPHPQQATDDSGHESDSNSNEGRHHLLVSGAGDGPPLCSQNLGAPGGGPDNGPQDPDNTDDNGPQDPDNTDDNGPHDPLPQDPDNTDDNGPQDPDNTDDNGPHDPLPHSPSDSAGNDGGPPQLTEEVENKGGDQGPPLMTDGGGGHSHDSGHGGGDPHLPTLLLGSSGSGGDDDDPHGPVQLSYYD", "experiment": "TES1-eGFP NF-kB reporter inhibition versus Tet-On dsRED, dose response, selectivity assay for LMP1 NF-kB inhibitor project, imaging, HEK293T, dual-color eGFP/dsRED, cherry-picks (AID 588398)", "type": "functional, cell-based"}, "[5]": {"target": "T1, Sentrin-specific protease 6 (Homo sapiens, UniProt Q9GZR1)", "T1 sequence (Q9GZR1 whole entry)": "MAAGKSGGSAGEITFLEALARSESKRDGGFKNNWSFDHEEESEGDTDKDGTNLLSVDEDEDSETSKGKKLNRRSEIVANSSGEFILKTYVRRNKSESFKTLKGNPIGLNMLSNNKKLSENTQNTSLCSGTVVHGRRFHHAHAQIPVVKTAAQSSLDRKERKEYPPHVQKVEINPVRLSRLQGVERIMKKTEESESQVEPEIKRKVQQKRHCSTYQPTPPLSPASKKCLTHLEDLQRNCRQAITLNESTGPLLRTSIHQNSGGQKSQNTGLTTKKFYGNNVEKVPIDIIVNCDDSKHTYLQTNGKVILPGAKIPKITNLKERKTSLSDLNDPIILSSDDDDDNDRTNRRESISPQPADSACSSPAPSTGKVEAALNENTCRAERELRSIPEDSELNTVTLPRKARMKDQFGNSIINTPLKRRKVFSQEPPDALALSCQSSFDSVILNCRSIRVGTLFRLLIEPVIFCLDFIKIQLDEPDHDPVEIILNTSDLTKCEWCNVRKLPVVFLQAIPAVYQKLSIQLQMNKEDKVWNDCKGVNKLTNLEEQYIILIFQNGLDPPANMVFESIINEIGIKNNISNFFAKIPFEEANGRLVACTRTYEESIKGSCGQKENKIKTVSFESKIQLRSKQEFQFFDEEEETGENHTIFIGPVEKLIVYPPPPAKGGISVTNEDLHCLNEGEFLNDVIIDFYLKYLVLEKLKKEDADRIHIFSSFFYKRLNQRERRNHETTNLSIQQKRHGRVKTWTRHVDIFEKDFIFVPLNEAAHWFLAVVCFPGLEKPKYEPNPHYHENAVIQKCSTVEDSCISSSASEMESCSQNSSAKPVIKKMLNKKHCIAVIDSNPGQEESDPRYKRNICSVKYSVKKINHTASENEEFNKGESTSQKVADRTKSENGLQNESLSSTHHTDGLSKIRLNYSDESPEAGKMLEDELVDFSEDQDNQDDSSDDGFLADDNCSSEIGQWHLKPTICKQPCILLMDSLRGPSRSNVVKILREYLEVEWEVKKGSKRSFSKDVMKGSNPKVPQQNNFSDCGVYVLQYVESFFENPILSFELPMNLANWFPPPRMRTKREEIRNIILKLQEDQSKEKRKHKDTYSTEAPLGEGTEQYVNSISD", "experiment": "SENP6 protease inhibitors, SAR follow-up, biochemical, luminescence, set 2 (AID 588598)", "type": "functional"}, "[6]": {"target": "T2, Sentrin-specific protease 7 (Homo sapiens, UniProt Q9BQF6)", "T2 sequence (Q9BQF6 whole entry)": "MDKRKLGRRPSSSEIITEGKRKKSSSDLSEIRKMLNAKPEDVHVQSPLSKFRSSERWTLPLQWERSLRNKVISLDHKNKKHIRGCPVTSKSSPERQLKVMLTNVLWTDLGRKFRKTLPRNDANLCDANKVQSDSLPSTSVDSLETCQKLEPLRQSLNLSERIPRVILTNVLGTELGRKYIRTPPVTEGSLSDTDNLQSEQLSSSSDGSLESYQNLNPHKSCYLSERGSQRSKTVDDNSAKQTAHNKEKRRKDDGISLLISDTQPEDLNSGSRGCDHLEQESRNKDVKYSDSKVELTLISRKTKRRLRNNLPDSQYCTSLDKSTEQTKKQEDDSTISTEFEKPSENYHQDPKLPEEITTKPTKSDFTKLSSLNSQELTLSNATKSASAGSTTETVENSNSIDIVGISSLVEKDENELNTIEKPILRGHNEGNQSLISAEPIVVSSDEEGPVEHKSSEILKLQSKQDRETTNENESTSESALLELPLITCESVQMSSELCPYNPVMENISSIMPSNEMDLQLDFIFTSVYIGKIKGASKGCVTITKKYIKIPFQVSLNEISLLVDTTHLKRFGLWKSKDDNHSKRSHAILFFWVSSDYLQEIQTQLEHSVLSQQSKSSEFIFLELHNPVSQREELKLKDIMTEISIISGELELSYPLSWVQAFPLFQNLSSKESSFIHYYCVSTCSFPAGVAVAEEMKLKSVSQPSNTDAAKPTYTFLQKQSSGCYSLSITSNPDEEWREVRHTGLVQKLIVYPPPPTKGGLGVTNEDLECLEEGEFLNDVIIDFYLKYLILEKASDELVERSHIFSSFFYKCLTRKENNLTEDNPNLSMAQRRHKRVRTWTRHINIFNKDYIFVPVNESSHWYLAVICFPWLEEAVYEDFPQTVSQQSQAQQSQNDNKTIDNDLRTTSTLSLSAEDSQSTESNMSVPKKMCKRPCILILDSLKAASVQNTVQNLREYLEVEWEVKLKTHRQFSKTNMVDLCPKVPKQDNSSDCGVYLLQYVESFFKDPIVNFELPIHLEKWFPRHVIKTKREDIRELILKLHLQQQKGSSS", "experiment": "SENP7 protease inhibitors, SAR follow-up, biochemical, luminescence, set 2 (AID 588600)", "type": "functional"}, "[7]": {"target": "T3, Sentrin-specific protease 8 (Homo sapiens, UniProt Q96LD8)", "T3 sequence (Q96LD8 whole entry)": "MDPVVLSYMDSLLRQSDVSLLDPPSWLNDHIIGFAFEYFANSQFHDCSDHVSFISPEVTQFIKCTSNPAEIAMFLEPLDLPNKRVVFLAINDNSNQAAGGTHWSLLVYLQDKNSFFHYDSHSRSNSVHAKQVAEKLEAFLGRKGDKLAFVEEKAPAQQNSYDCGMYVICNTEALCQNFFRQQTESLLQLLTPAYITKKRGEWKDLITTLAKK", "experiment": "SENP8 protease inhibitors, SAR follow-up, biochemical, luminescence, set 2 (AID 588601)", "type": "functional"}, "Caspase-3 [8]": {"target": "T4, Caspase-3 (Homo sapiens, UniProt P42574)", "T4 sequence (P42574 whole entry)": "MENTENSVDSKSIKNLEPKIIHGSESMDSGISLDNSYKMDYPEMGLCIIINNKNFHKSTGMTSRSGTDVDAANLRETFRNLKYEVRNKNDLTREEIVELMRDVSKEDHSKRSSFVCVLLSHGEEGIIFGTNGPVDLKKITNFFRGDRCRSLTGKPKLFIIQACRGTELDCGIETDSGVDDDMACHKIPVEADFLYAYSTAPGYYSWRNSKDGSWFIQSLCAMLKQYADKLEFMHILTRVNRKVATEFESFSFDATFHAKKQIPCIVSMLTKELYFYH", "experiment": "caspase-3 inhibitors as off-family protease, SAR follow-up, selectivity assay for SENP protease inhibitor project, biochemical, luminescence, set 2 (AID 588599)", "type": "functional"}, "[9]": {"target": "T1, Sentrin-specific protease 6", "experiment": "SAR Analysis of small molecule inhibitors of Sentrin-specific protease 6 (SENP6) using a Luminescent assay. [Related pubchem assays (depositor defined):AID2582, AID2599]", "type": "functional"}, "[10]": {"target": "T2, Sentrin-specific protease 7", "experiment": "SENP7 protease inhibitors, SAR follow-up, biochemical, luminescence (AID 504497)", "type": "functional"}, "Caspase-3 [11]": {"target": "T4, Caspase-3", "experiment": "SAR Analysis of small molecule inhibitors of Sentrin-specific proteases (SENPs) using a Caspase-3 Selectivity assay. [Related pubchem assays (depositor defined):AID2540, AID2599, AID434973, AID489001]", "type": "functional"}, "[12]": {"target": "T3, Sentrin-specific protease 8", "experiment": "SENP8 protease inhibitors, SAR follow-up, biochemical, luminescence (AID 504501)", "type": "functional"}},
  "note": "Active and inactive are the calls of the source. For most assays here, no stated cut-off is given here; in the data, actives have a measured IC50 and inactives only a lower limit.",
  "data": [
    {"smiles": "Clc1ccc(SCc2cc(N3CCOCC3)nc(-c3ccccn3)n2)cc1", "values": [
      {"measurement": "EC50", "setting": "[1]", "value": "1.51 µM (active)"},
      {"measurement": "CC50", "setting": "[2]", "value": "19.5 µM (active)"},
      {"measurement": "AC50", "setting": "INS1", "value": "2.57 µM (active)"},
      {"measurement": "AC50", "setting": "HEK293", "value": "12.1 µM (active)"},
      {"measurement": "EC50", "setting": "[3]", "value": "> 60 µM (not active)"},
      {"measurement": "AC50", "setting": "[4]", "value": "10.5 µM (active)"}
    ]},
    {"smiles": "Cc1ccc(S(=O)(=O)NCCC(=O)N/N=C\\c2c[nH]c3ccccc23)cc1", "values": [
      {"measurement": "IC50", "setting": "[5]", "value": "> 99 µM (inactive)"},
      {"measurement": "IC50", "setting": "[6]", "value": "> 99 µM (inactive)"},
      {"measurement": "IC50", "setting": "[7]", "value": "> 99 µM (inactive)"},
      {"measurement": "IC50", "setting": "Caspase-3 [8]", "value": "> 99 µM (inactive)"}
    ]},
    {"smiles": "COc1cc(Cc2nccc3cc(OC)c(OC)cc23)c(C(=O)c2ccccc2)cc1OC", "values": [
      {"measurement": "IC50", "setting": "[9]", "value": "50.9 µM (active)"},
      {"measurement": "IC50", "setting": "[10]", "value": "> 99 µM (inactive)"},
      {"measurement": "IC50", "setting": "Caspase-3 [11]", "value": "71.6 µM (active)"},
      {"measurement": "IC50", "setting": "[12]", "value": "> 99 µM (inactive)"}
    ]}
  ]
}
